Source: PMC8910872, “A Competition between Hydrogen, Stacking, and Halogen Bonding in N-(4-((3-Methyl-1,4-dioxo-1,4-dihydronaphthalen-2-yl)selanyl)phenyl)acetamide: Structure, Hirshfeld Surface Analysis, 3D Energy Framework Approach, and DFT Calculation” (International Journal of Molecular Sciences, 2022)
pIC50: −log10 of the molar value. “Also recorded” adds a separate entry of the source.

Tests used:
calf thymus DNA = assay: Bleomycin-dependent DNA damage assay; type: biochemical; design: Bleomycin-dependent DNA damage assay (Abs.): scale not given here; conditions: 2 mM tested compound; for Bleomycin-dependent DNA damage assay (Abs.): absorbance at 532 nm, means of 3 replicates; for Bleomycin-dependent DNA damage, % of Vitamin C: relative to L-ascorbic acid (2 mM)
From the text: (§1) The cytotoxicity was estimated by the MTT assay against different oligodendrocytes, such as 158 JP and 158 N cells, and 7-ketocholesterol was the control. Different in vitro assays were used to estimate the redox activity, including the dihydroethidium (DHE), 2′,7′-dichlorodihydrofluorescein diacetate (H2-DCFDA), 2,2′-azinobis-3-ethylbenzothioazoline-6-sulphonate (ABTS), 2,2-diphenyl-2-picrylhydrazyl (DPPH), and the bleomycin-induced DNA damage assays.
(§2) Bleomycin-dependent DNA damage
The assay was performed according to the reported method with minor modifications. The reaction mixture contained 0.5 mg/ml calf thymus DNA, 0.05 mg/ml b leomy cin sulfate, 5 mM magnesium chloride, 50 mM ferric chloride, 2 mM tested compound. L-ascorbic acid (2 mM) was used as a positive control. The mixture was incubated at 37 °C for 1 hour. The activity of test compounds was evaluated as malondialdehyde equivalents. Thiobarbituric acid reactive substances, which arose from deoxyribose degradation of DNA were assessed. The reaction was terminated by the addition of 0.05 ml 0.1 M EDTA. The color was developed by adding 0.5 ml of 1% w/v thiobarbituric acid and 0.5 ml of 25% v/v HCl (25% v/v). The tube was capped with a screw cap and heated at 80 °C for 30 min. After cooling in ice water, the mixture was then shaken and centrifuged and the extent of DNA damage was measured by an increase in absorbance at […]
Table S4. The Bleomycin-dependent DNA damage assay.
Compd. No. DNA damage assay % of Vitamin C […]
a ascorbic acid is used as a standard for antioxidant activity; values are means of 3 replicates; b not detected.

158N cells [1] = assay: DHE assay of superoxide anion (O2•−) production (flow cytometry); type: cell-based, Murine; conditions: for DHE assay (% of positive cells), superoxide anion production: 158N cells, mean ± SD
From the text: as §1
(§3) The levels of ROS were monitored with the H2-DCFDA and DHE assays using flow cytometry. Briefly, 158 N cells were mixed with serial concentrations (0–50 μM) of compound 4 and compound 5 using Vitamin E as the control.
ROS overproduction and O2•− were detected with DCF and DHE, respectively. Cultured cells were treated with trypsin re-suspended in PBS (10^6 cells/mL) and kept in the dark for a half-hour at 37°C with H2-DCFDA or DHE at 10 μM and 2 μM and cells were analyzed by flow cytometry. […]
Flomax (Partec) or FlowJo (Tree Star Inc.) software was used for th e data analysis. […]
Table S3. Evaluation of the effects of compounds on superoxide anions (O2•− ) production […]
DHE assay (% of positive cells)
158N Cells were grown in the presence of different compounds (C1=10; C2= 20; C3=50 µM); Flow cytometry techniques was used to estimate the O2•− production via staining with DHE; Data are shown as mean ± SD and expressed as % control; Significance of the difference between the DMSO and compounds. […]

158N cells [2] = assay: H2-DCFDA assay of ROS production (flow cytometry); type: cell-based, Murine; conditions: for Effect on ROS level / H2-DCF intensity (in words): 158 N cells, 0–50 μM, vitamin E as control; for H2-DCFDA assay (% of control), ROS production: 158N cells, mean ± SD
From the text: as §1, §3
ROS overproduction and O2•− were detected with DCF and DHE, respectively. Cultured cells were treated with trypsin re-suspended in PBS (10^6 cells/mL) and kept in the dark for a half-hour at 37°C with H2-DCFDA or DHE at 10 μM and 2 μM and cells were analyzed by flow cytometry.
The green fluorescence of 2’,7’- dichlorofluorescein resulting from the oxidation of H2-DCFDA was analyzed by flow cytometry and collected through a 520/10-nm bandpass filter. DHE, a non-fluorescent compound, rapidly oxidized in ethidium under the action of O2•− to give 2-hydroxyethidium that intercalates with DNA giving red fluorescence of ethidium collected through a 590/10-nm bandpass filter using an excitation of 488 nm and an emission wavelength of 575 nm.
Flomax (Partec) or FlowJo (Tree Star Inc.) software was used for th e data analysis.
Table S2. Evaluation of the effects of compounds on ROS production by H2-DCFDA assay.
H2-DCFDA assay (% of control)
158N Cells were cultured in the presence of different compounds (C1=10; C2= 20; C3=50 µM); Flow cytometry technique was used to evaluate ROS levels via staining cells with H2-DCF; data are shown as mean ± SD and expressed as % control; the significance of the difference between the DMSO and compounds. Treated cells are indicated by (Mann–Whitney test; *: P < 0.05); vitamin E (50 µM) was used as a positive control.

[3] = GPx-like activity assay (NADPH-coupled, H2O2 reduction); type: biochemical; conditions: ebselen (41 µM) positive control
Procedure: page 19: GPx -like activity The GPx-kit was purchased from Biodiagnostic (Egypt) and used according to the reported method. The sample was prepared by adding assay buffer and NADPH reagent (0 .1 ml; 24 μmol Glutathione, 4.8 μmol NADPH and12 units Glutathione reductase), and organic selenide 4 (0.01 ml, 41 μM). H2O2 (0.8 mM) was then added, and the absorbance was kinetically recorded every 1 min at wavelength 340 nm over three successive minutes. […]/min was calculated. Ebselen (41 μM) was used as the positive control. For colored organoselenium compounds, their absorbance was subtracted at the used wavelength. 0.008 0.007 0.006 0.005 0.004 0.003 0.002 0.001 0 Eb selen 4 5 Figure S11 . GPx-like activity assay (μM. min-1). The reduction of H2O2 by GPx-like activity was tracked by […] of glutathione disulfide (GSSG) and NADPH to glutathion e (GSH, reduced form) and NADP+, respectively. The latter was detected by a decrease in the absorbance at 340 nm. References 1. […], Jacob C. Sulfur, selenium and tellurium pseudopeptides: synthesis and biological evaluation. Bioo rg. Med. Chem. 22(14), 3610-3619 (2014). 2. […]. Synthesis and anti-tumor evaluation of novel organoselenocyanates and symmetrical diselenides dyestuffs . Der Pharma Chemica. 6, 186-193 (2014).

158N cells [4] = assay: MTT cytotoxicity assay on 158N oligodendrocytes; type: cell-based, Murine; conditions: Mus musculus, 0, 1, 10, 20, 50, 100 µM, mean of two parallel experiments, read-out: IC50 (viability of 158N cells)
From the text: as §1
(§4) Murine oligodendrocytes (158N and 158JP) were seeded at 240,000 cells per 24-well plates and were grown using the Dulbecco’s Modified Eagle Medium supplemented with penicillin antibiotics (1% v/v, streptomycin) and fetal bovine serum (5% v/v) and kept at 37 °C an atmosphere containing 5% CO2 [3]. […] Organ ic sel enides 4 and 5 were prepared in DMSO and then diluted with DMEM up to 1 mM.
The MTT assay was carried out on 158N and 158JP cells after one day of incubation with 7kc (50µM)/different concentrations (0, 1, 10, 20, 50, and 100 µM) of the o rganic selenides 4 an d 5 were. In live cells, the MTT is reduced to formazan by the succinate dehydrogenase mitochondrial enzy me. The microplate reader Tecan Sunrise (Tecan, Lyon, France) was used for the reading of the plates at 570 nm. The IC50 values and the maximu m concentrations without toxicity were estimated for organic selenides 4 and 5 from the respective dose-response curves.
Table S1. Effect of the organoselenium compounds on the viability of 158N and 158JP […]
The cytotoxicity was measured after two days of treatment with different concentrations (0, 1, 10, 20, 50, and 100 µM) of the organic selenides using the MTT assay. The IC50 was estimated as the mean of two parallel experiments;

[5] = Bleomycin-induced DNA damage, DPPH and ABTS in vitro radical scavenging assays; conditions: DPPH, ABTS assays
From the text: as §1, §2
The assay was performed according to the reported method with minor modifications. […] The activity of test compounds was evaluated as malondialdehyde equivalents. Thiobarbituric acid reactive substances, which arose from deoxyribose degradation of DNA were assessed. […] After cooling in ice water, the mixture was then shaken and centrifuged and the extent of DNA damage was measured by an increase in absorbance at […]
a ascorbic acid is used as a standard for antioxidant activity; values are means of 3 replicates; b not detected. […]
The hydrogen atom or electron donation ability of the corresponding compounds was measured by estimating the bleaching of the purple color of a methanolic solution of DPPH. […] After 30 min of incubation in the dark, the absorbance was read against a blank at 517 nm. […] The radical scavenging activity was calculated using the following equ ation : I% = (Ablank- […]

MCF-7 = system: MCF-7; design: method as in PMID 29864687, doi:10.1016/j.arabjc.2021.103051; conditions: read-out: IC50 (cytotoxic activity against MCF-7); cited from earlier work
158JP cells = assay: MTT cytotoxicity assay on 158JP oligodendrocytes; type: cell-based, Murine; conditions: mean of two parallel experiments
From the text: as §1, §4
The MTT assay was carried out on 158N and 158JP cells after one day of incubation with 7kc (50µM)/different concentrations (0, 1, 10, 20, 50, and 100 µM) of the o rganic selenides 4 an d 5 were. […] The microplate reader Tecan Sunrise (Tecan, Lyon, France) was used for the reading of the plates at 570 nm. […]
The cytotoxicity was measured after two days of treatment with different concentrations (0, 1, 10, 20, 50, and 100 µM) of the organic selenides using the MTT assay. […]

HepG2 = system: HepG2; design: method as in PMID 29864687, doi:10.1016/j.arabjc.2021.103051; conditions: read-out: IC50 (cytotoxic activity against HepG2); cited from earlier work

Molecule | Bleomycin-dependent DNA damage assay (Abs.) (calf thymus DNA) | Bleomycin-dependent DNA damage, % of Vitamin C (calf thymus DNA) [%] | DHE assay (% of positive cells), superoxide anion production (158N cells [1]; C1 (10 µM)) | DHE assay (% of positive cells), superoxide anion production (158N cells [1]; C2 (20 µM)) | DHE assay (% of positive cells), superoxide anion production (158N cells [1]; C3 (50 µM), vitamin E 50 µM) | Effect on ROS level / H2-DCF intensity (in words) (158N cells [2]) | H2-DCFDA assay (% of control), ROS production (158N cells [2]; C1 (10 µM)) | H2-DCFDA assay (% of control), ROS production (158N cells [2]; C2 (20 µM)) | H2-DCFDA assay (% of control), ROS production (158N cells [2]; C3 (50 µM), vitamin E 50 µM) | GPx-like activity (in words) [3] | pIC50 (158N cells [4]) | Pro-oxidant properties compared to vitamin C [5] | pIC50 (MCF-7) | IC50 (viability of 158JP cells) (158JP cells; 0, 1, 10, 20, 50, 100 µM) | Effect on O2− production in DHE assay (in words) (158N cells [1]; 158 N cells, 0–50 μM) | pIC50 (HepG2) | pIC50 (158JP cells; Mus musculus, 0, 1, 10, 20, 50, 100 µM, read-out: IC50 (viability of 158JP cells))
O=C1O[C@H]([C@@H](O)CO)C(O)=C1O [Vit.C, L-ascorbic acid, reference compound] | 989 | 100 |  |  |  |  |  |  |  |  |  |  |  |  |  |  | 
CC(=O)Nc1ccc([Se]C2=C(C)C(=O)c3ccccc3C2=O)cc1 [Compound 5, N-(4-((3-Methyl-1,4-dioxo-1,4-dihydronaphthalen-2-yl)selanyl)phenyl)acetamide] | 581 | 58.8 | 109±12 % of positive cells | 121 ±1 % of positive cells | 120 ±4 % of positive cells | decrease the H2-DCF intensity; also recorded: decreased the ROS level | 7 ± 2 % of control | 5 ± 1 % of control | 6 ± 1 % of control | moderate GPx-like activity | 4.96 | up to 60% |  |  |  |  | 
CC1=C([Se]c2ccc(N)cc2)C(=O)c2ccccc2C1=O [Compound 4] | 483 | 48.8 | 264 ±25 % of positive cells | 406±29 % of positive cells | 417±31 % of positive cells | pronounced pro-oxidant activity | 700 ± 143 % of control | 854 ± 135 % of control | 935 ± 307 % of control | moderate GPx-like activity | 4.57 | up to 60% | 4.83 | no growth inhibition was observed | promote the production of O2^− | 6.05 | 
CC(C)CCC[C@@H](C)[C@H]1CC[C@H]2[C@@H]3C(=O)C=C4C[C@@H](O)CC[C@]4(C)[C@H]3CC[C@]12C [Compound 7kc, 7-ketocholesterol, reference compound] |  |  |  |  |  |  |  |  |  |  | 4.43 |  |  |  |  |  | 4.13
VITAMINE E [reference compound] |  |  |  |  | 74± 1 % of positive cells |  |  |  | 94 ± 5 % of control |  |  |  |  |  |  |  | 
